In patent publication US20140302217A1, “PRESERVATIVE COMBINATIONS COMPRISING PROPIONIC ACID AND VANILLIN AND/OR CINNAMIC ACID” (Purac Biochem B.V., priority 2011, published 2014):

Legend:
[1] = system: pure cultures of moulds; assay: single components and binary combinations on MEA agar plates against pure cultures of moulds (colony diameter); type: cell-based, Fusarium oxisporum, Byssoaclamys fulva, Penicillium sp
Procedure: (§1) Each experiment existed of 10 MEA agar plates containing a successive amount of component, starting from 0 ppm to the maximal used concentration.
(§2) MEA was prepared by dissolving 20 g of Malt extract (Difco, England), 1 g of Peptone (Becton Dickinson, USA), 20 g of glucose and 20 g of bacteriological agar (No. 1. Oxoid, England) in 11 of dematerialized water. The pH was adjusted to 3.2 by adding 5.9 ml of Hcl 1M after heat sterilization.
(§3) A stock solution was made for each component. The stock was 25 times the maximal used concentration. A successive amount from 0 to 900 μl of these stocks, making the concentration range, was pipetted in 10, 50 ml capped test tubes.
(§4) Subsequently, 25 ml of warm (80-90° C.) MEA agar was pipetted, using a sterile 25 ml pipette, in the tubes and the tubes were vortexed slowly but vigorously. Next, the component containing agar was poured out in 9 cm Petri dishes. Besides single components against single moulds, combinations of propionate with potassium cinnamate or vanillin were tested on solid agar. To prepare these binary combinations 6.25 ml of a 4 times concentrated component was mixed with the other components that was also 4 times concentrated. The mix of components were mixed with 12.5 ml double concentrated MEA to reach the preferred concentrations.
(§5) After the plates were dried a dot was spotted at the backside and in the centre of the petridish 0.5 μl of the mould spore solution was spotted on the agar targeting the dot in the centre. When the drop was dried in, the plates were placed bottom down in the incubator at 25° C.
(§6) The growth of colonies was determined by measurement of the colony diameter at different points in time. The growth curves were converted to dose response curves as described in 2.6.
(§7) The data from the agar plate experiments were obtained by measuring the colony size changes. The change in time was interpreted as growth speed and growth curves were plotted.
To convert the growth curves to dose response curves the μ Max (maximum growth rate) was calculated per concentration of antimicrobial component. […]

[2] = system: Byssoaclamys fulva (Bysful2); assay: MEA agar plate colony growth test; type: cell-based; details: single component, agar plates
Procedure: as §1, §2, §3, §4, §5, §6, §7
(§8) To convert the growth curves to dose response curves the μ Max (maximum growth rate) was calculated per concentration of antimicrobial component. The curves were fitted to a Logistic Dose Response (LDR) Intercept Form (Equation 8013) using Table curve 2D version 5.1

[3] = system: Penicillium sp (Pen381); assay: MEA agar plate colony growth test; type: cell-based; details: single component, agar plates
Procedure: as §1, §2, §3, §4, §5, §6, §7, §8

[4] = system: mould cocktail; assay: combinations of components in model drink in 96-well microtiter plates, visual observation of growth; type: cell-based, Fusarium oxisporum, Byssoaclamys fulva, Penicillium sp; details: 3 weeks at 20°
Procedure: The tests where two components or more components were combined in model drink were carried out in sterile 96-well microtiter plates. Sterile matrix was prepared according recipe of Nestle with increasing quantities of two different inhibitors. The concentrations of each inhibitor were presented in 8 equal concentration steps that ranged from 0 to 1-2 times the (estimated) MIC value of particular mould for a particular inhibitor resulting in 64 different media. 200 μl of each medium was transferred to a panel of a sterile 96-well microtiter plate.
Completed well plates were stored at 4° C. until further use. The data was obtained via optical observation of growth.
Spores of all moulds were collected via the method as described in 2.3. Spores were counted using the Burker-turk method and adjusted to a log 5 per ml in PFZ and mixed to a homologue suspension. This suspension was diluted 100 times for inoculation.
In order to have an idea of the efficacy of the combination of propionate, vanillin and potassium cinnamate in model drink, some experiments were done in microwells plates. These experiments were visually observed after 3 weeks of incubation at 20° and used as pre-application experiments in order to create an expectation for the efficacy of the components in long term application experiments. The data that is shown in table 5 below is divided in “+” and “−”. The “+” means visible growth, while the “−” means no visible growth of the mould cocktail at the specific concentrations. […] However, combined with an amount of nearly 400 ppm of propionate and 75 ppm of vanillin the model drink is stable for at least 3 weeks.

| Structure (SMILES) | sensitivity of all moulds to the component [1] | amount needed for an overall inhibition of all moulds ([1]; single component, also printed as 900 ppm) | concentration at which Byssoclamys is inhibited [2] | concentration at which Penicillium is inhibited [3] | growth of Penicillium ([3]; after 100 ppm) | inhibition of Penicillium ([3]; levels up to 200 ppm) | inhibition of the growth of the mould cocktail ([4]; 350 ppm alone) | visible growth of mould cocktail ([4]; Kcinnamate 0.0050% (w/v)) | visible growth of mould cocktail ([4]; Kcinnamate 0.0100% (w/v)) | visible growth of mould cocktail ([4]; Kcinnamate 0.0150% (w/v)) | visible growth of mould cocktail ([4]; Kcinnamate 0.0200% (w/v)) | visible growth of mould cocktail ([4]; Kcinnamate 0.0250% (w/v)) | visible growth of mould cocktail ([4]; Kcinnamate 0.0300% (w/v)) | visible growth of mould cocktail ([4]; Kcinnamate 0.0350% (w/v)) |
| --- | --- | --- | --- | --- | --- | --- | --- | --- | --- | --- | --- | --- | --- | --- |
| COc1cc(C=O)ccc1O [vanillin, 4-Hydroxy-3-methoxybenzaldehyde] | sensitive | approximately 0.09% | – | – | – | – | – | – | – | – | – | – | – | – |
| CCC(=O)O [propionate, Propionic acid] | sensitive | – | approximately 0.15% | approximately 0.15% | – | – | – | – | – | – | – | – | – | – |
| O=C([O-])C=Cc1ccccc1.[K+] [potassium cinnamate] | – | – | – | – | dramatic increase | not inhibited | not sufficient | + | + | + | + | + | + | + |
